Results from patent US7759078B2, “Diagnosis and treatment of cancer” (priority 2003, dated 2010).

How the values were obtained:
[1] = system: voltage gated Na+ channel in MAT-LyLu rat prostatic cancer cell line; assay: current recordings of VGSC functional expression in MAT-LyLu cells after 24 h incubation; type: cell-based
Protocol: FIG. 9. (A) Current recordings from the MAT-LyLu rat prostatic cancer cell line elicited by depolarising the membrane from a holding potential of −100 mV to 0 mV following 24 h incubation in 0% FBS, 100 ng/ml EGF and 1 μM AG1478. […] (B) Histograms showing mean peak Na^+ current density ± standard error following 24 h incubation in 0% FBS, 100 ng/ml EGF, 1 μM AG1478 and EGF receptor antibody (1 μg/ml). Statistical significance is indicated as **=p<0.01 and ***=p<0.001, respectively.
Epidermal growth factor (EGF) upregulates VGSC functional expression. […] This effect is blocked by co-application of EGF receptor kinase inhibitor (AG1478; Calbiochem, San Diego, Calif., USA). Application of EGF receptor antibody (Oncogene, Cambridge, Mass., USA) also reduces the basal VGSC current implying that the phenomenon occurs endogenously.

MAT-LyLu and PC-3 cells = settings: cited from earlier work
MAT-LyLu cells = settings: cited from earlier work
[2] = system: PN1 expression in PC12 cells; settings: cited from earlier work

COc1cc2ncnc(Nc3cccc(Cl)c3)c2cc1OC [AG1478]
effect on EGF potentiation of functional VGSC expression ([1]; co-application with EGF, 1 μM AG1478, 24 h): blocked

NC1=N[C@H](O)[C@H]2[C@H]3O[C@]4(O)O[C@@H]([C@@H](O)[C@@]2(N1)[C@@H]4O)[C@]3(O)CO [TTX, tetrodotoxin]
cells' invasion in vitro (MAT-LyLu and PC-3 cells): significantly reduced | reduction of the cells' invasive potential (MAT-LyLu and PC-3 cells): ~30% | effect on cell morphology (MAT-LyLu cells): retract their processes and become compact

Epidermal growth factor [EGF]
VGSC functional expression (peak Na+ current density) ([1]; 24 h incubation, 100 ng/ml EGF): upregulates

nerve growth factor [NGF]
PN1 expression [2]: upregulates
